{"source": "ChEMBL document CHEMBL1155981", "about": "“Molecular modeling studies to predict the possible binding modes of endomorphin analogs in mu opioid receptor” (Bioorg Med Chem Lett, 2009)", "target": "Mu-type opioid receptor (Homo sapiens, UniProt P35372)", "sequence (P35372 whole entry)": "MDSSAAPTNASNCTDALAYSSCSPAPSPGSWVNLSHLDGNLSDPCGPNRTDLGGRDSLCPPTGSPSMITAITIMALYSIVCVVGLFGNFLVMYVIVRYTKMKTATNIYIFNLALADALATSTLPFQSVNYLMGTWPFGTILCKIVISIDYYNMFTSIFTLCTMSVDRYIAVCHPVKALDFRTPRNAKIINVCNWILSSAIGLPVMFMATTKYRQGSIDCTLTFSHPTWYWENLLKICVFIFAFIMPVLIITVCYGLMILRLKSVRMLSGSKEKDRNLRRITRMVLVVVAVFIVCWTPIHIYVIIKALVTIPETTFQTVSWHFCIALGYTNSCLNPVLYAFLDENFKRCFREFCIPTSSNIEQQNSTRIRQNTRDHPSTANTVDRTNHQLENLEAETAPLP", "assay": "Binding affinity to human mu opioid receptor", "note": "Peptide text beside a SMILES is read from it. * marks the point of attachment. NHBn = c1ccc(CN*)cc1", "data": [{"smiles": "CC(C)[C@@H](NC(=O)[C@H](Cc1c[nH]c2ccccc12)NC(=O)[C@@H]1CCCN1C(=O)[C@@H](N)Cc1ccc(O)cc1)C(=O)NCc1ccccc1", "values": [{"measurement": "Ki", "result": 2.32, "unit": "nM"}]}, {"smiles": "CC(C)[C@@H](NC(=O)[C@H](Cc1ccccc1)NC(=O)[C@@H]1CCCN1C(=O)[C@@H](N)Cc1ccc(O)cc1)C(=O)NCc1ccccc1", "values": [{"measurement": "Ki", "result": 4.97, "unit": "nM"}]}, {"smiles": "C[C@@H](NC(=O)[C@H](Cc1c[nH]c2ccccc12)NC(=O)[C@@H]1CCCN1C(=O)[C@@H](N)Cc1ccc(O)cc1)C(=O)NCc1ccccc1", "values": [{"measurement": "Ki", "result": 4.56, "unit": "nM"}]}, {"smiles": "C[C@@H](NC(=O)[C@H](Cc1ccccc1)NC(=O)[C@@H]1CCCN1C(=O)[C@@H](N)Cc1ccc(O)cc1)C(=O)NCc1ccccc1", "values": [{"measurement": "Ki", "result": 8.67, "unit": "nM"}]}, {"smiles": "C[C@H](NC(=O)[C@H](Cc1ccccc1)NC(=O)[C@@H]1CCCN1C(=O)[C@@H](N)Cc1ccc(O)cc1)C(=O)NCc1ccccc1", "values": [{"measurement": "Ki", "result": 122, "unit": "nM"}]}, {"smiles": "N[C@@H](Cc1ccc(O)cc1)C(=O)N1CCC[C@H]1C(=O)N[C@@H](Cc1c[nH]c2ccccc12)C(=O)NCC(=O)NCc1ccccc1", "note": "(H-YPWG-NHBn)", "values": [{"measurement": "Ki", "result": 56.2, "unit": "nM"}]}]}
